Tests used:
Type in all cases: biochemical
[1] = target: CDK6/Cyclin D3 (Homo sapiens (Human), UniProt Q00534); test: CDK6/Cyclin D3 ADP-Glo Kinase Assay; details: read-out: CDK6/CyclinD3 IC50
Protocol: CDK6/Cyclin D3 ADP-Glo Kinase Assay
(§1) The purpose of the CDK6/Cyclin D3 assay is to evaluate the inhibition (% inhibition and IC50 values) in the presence of small molecule inhibitors by using a Luminescent based ADP-Glo assay. CDK6/Cyclin D3 catalyzes the production of ADP from ATP. ADP-Glo assay monitors ADP producing biochemical reactions. ADP-Glo is performed in 2 steps upon completion of kinase reaction: a combined termination of kinase reaction and depletion of remaining ATP in the first step, and conversion of generated ADP to ATP and the newly produced ATP to light output using luciferase/luciferin reaction in the second step. The luminescent signal generated is proportional to the ADP concentration produced and is correlated with the kinase activity. CDK6/Cychin D3 was purchased from Carna. […] The assay was initiated with the addition of ATP-containing substrate solution, following a 30-minute pre-incubation of enzyme and inhibitor at room temperature in the reaction mixture. The reaction was stopped after 90 minutes at room temperature by the addition of 10 μL of ADP-GLO Reagent. After a 90-minute incubation, 20 μL of Kinase Detection Reagent was added. Samples were incubated for 40 minutes, after which plate well luminescence was measured on a Envision microplate reader. The IC50 determinations were made from a plot of the fractional velocity as a function of inhibitor concentration fit to the 4 parameters IC50 equation.

[2] = target: CDK4/Cyclin D1 (Homo sapiens (Human), UniProt P11802); test: CDK4/Cyclin D1 CHEF Assay; details: AQT; read-out: CDK4/CyclinD1 AQT IC50
Excerpt: CDK4/Cyclin D1 CHEF Assay
The purpose of CDK4/Cyclin Dl assay is to evaluate the inhibition (% inhibition and IC50 values) of small molecule inhibitors by using a Chelation-Enhance Fluorescence (CHEF) assay. In a CHEF assay, phosphorylation of a peptide substrate results in proportional increase in fluorescence. CHEF kinase assay use peptide substrates containing a synthetic alpha-amino acid with a side chain bearing an 8-hydroxyquinoline derivative (sulfonamido-oxide, Sox). Upon phosphorylation of a nearby serine, threonine or tyrosine and in the presence of Mg(II), the spectral properties of the Sox residue are altered, emitting 485 nm wavelength light when excited with a 360 nm wavelength light source. CDK4/Cyclin D1 catalyzes the phosphoryl transfer to the SOX-labeled substrate peptide AQT0258 from Assayquant Technologies. […] The reaction was initiated with the addition of substrate solution, following a 30-minute pre-incubation of enzyme and inhibitor at 22° C. in the reaction mix. Reactions were allowed to proceed for 3 hrs at 22° C., followed by fluorescence read of the reaction. The IC50 determinations were made from a plot of the fractional velocity as a function of inhibitor concentration fit to the 4 parameters IC50 equation.

[3] = target: CDK1/Cyclin B1 (Homo sapiens (Human), UniProt P06493); test: CDK1/Cyclin B1 ADP-Glo Kinase Assay
Protocol: CDK1/Cyclin B1 ADP-Glo Kinase Assay
as §1, with “CDK1/Cyclin Bi” for “the CDK6/Cyclin D3”, “values)” for “values) in the presence”, “CDK1/Cyclin B1” for “CDK6/Cyclin D3”, “CDK1/Cyclin B1” for “CDK6/Cychin D3”, “Carna (Cat 04-102).” for “Carna.”, “90 minute” for “90-minute”

Chain of CDK6/Cyclin D3 (Q00534 whole entry): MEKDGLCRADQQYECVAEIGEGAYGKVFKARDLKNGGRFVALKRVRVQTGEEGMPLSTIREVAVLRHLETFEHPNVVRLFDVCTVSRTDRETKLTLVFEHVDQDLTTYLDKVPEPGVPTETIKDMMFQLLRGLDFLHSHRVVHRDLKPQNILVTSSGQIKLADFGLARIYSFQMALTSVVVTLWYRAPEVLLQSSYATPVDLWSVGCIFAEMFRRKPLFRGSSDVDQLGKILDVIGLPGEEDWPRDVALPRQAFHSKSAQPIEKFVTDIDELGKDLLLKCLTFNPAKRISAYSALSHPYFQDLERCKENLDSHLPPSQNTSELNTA
Chain of CDK6/Cyclin D3 (P30281 whole entry partner): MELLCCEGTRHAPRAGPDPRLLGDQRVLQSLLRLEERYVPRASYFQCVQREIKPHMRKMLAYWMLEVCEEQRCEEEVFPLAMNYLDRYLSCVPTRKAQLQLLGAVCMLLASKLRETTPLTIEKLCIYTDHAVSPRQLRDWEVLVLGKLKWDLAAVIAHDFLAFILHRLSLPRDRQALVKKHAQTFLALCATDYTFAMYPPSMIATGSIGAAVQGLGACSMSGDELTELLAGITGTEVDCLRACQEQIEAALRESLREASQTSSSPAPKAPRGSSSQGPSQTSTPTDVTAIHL
Chain of CDK4/Cyclin D1 (P11802 whole entry, species assumed): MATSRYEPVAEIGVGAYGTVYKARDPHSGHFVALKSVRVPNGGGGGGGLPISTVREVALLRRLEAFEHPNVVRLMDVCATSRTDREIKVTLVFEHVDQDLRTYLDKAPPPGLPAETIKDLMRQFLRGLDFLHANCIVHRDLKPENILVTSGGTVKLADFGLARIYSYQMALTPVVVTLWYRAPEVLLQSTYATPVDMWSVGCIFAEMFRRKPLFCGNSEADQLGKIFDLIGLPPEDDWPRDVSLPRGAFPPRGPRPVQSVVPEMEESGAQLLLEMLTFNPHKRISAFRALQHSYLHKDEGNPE
Chain of CDK4/Cyclin D1 (P24385 whole entry partner, species assumed): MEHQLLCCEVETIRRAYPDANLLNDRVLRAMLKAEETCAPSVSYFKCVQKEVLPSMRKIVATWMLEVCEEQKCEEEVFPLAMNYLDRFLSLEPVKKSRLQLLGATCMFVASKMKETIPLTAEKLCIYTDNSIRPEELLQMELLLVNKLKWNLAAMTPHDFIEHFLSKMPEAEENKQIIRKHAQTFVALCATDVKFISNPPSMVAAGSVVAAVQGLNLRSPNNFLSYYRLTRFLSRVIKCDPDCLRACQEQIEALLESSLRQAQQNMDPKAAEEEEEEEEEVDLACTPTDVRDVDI
Chain of CDK1/Cyclin B1 (P06493 whole entry): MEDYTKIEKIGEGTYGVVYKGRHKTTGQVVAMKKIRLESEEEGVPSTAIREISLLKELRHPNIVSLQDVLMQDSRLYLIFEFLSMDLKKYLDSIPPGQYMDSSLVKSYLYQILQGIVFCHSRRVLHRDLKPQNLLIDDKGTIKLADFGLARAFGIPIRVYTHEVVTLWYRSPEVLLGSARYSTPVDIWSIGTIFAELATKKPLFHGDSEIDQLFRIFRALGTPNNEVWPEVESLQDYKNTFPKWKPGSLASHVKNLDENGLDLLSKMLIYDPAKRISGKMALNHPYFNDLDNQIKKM
Chain of CDK1/Cyclin B1 (P14635 whole entry partner): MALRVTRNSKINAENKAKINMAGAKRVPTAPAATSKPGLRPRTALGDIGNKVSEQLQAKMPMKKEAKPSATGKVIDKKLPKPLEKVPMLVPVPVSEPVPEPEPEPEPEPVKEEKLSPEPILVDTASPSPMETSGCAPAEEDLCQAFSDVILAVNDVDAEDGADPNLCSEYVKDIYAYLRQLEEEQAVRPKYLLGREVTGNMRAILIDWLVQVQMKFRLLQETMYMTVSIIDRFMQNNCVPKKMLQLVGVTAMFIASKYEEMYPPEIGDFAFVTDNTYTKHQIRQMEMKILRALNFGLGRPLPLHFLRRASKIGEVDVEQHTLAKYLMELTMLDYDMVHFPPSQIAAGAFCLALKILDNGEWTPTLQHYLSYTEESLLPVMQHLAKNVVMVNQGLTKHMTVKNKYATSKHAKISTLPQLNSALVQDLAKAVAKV

SMILES | IC50 [1] [µM] | IC50 [2] [µM] | IC50 [3] [µM]
Cc1cc2cnc(NC3CCN(S(=O)(=O)C4CC4)CC3)nc2c(N2CC3(CCNC3)C2)n1 [Compound 25, N-(1-(cyclopropylsulfonyl)piperidin-4-yl)-6-methyl-8-(2,6-diazaspiro[3.4]octan-2-yl) pyrido[3,4-d]pyrimidin-2-amine] | < 0.2 | < 0.2 | 0.2 to 0.5
Cc1cc2cnc(Nc3cc4c(cc3F)CN(S(C)(=O)=O)C4)nc2c(N2CC3(CCNC3)C2)n1 [Compound 39, N-(6-fluoro-2-(methylsulfonyl)isoindolin-5-yl)-6-methyl-8-(2,6-diazaspiro [3.4]octan-2-yl)pyrido[3,4-d]pyrimidin-2-amine] | > 2 | 0.2 to 0.5 | > 2
Cc1cc2cnc(N[C@H]3CC[C@H](CN(C)C)CC3)nc2c(N2CCC3(C2)CC3(F)F)n1 (some centres unmarked) [Compound 40, 8-(1,1-difluoro-5-azaspiro[2.4]heptan-5-yl)-N-((1r,4r)-4-((dimethylamino)methyl)cyclohexyl)-6-methylpyrido[3,4-d]pyrimidin-2-amine] | < 0.2 | < 0.2 | > 2
Cc1cc2cnc(Nc3ccc4c(c3)CN(C)C4)nc2c(N2CC3(C2)CN(C2CC2)C3)n1 [Compound 44, 8-(6-cyclopropyl-2,6-diazaspiro[3.3]heptan-2-yl)-6-methyl-N-(2-methylisoindolin-5-yl)pyrido[3,4-d]pyrimidin-2-amine] | – | 0.2 to 0.5 | > 2
Cc1cc2cnc(N[C@H]3CC[C@@H](CN(C)C)CC3)nc2c(N2CCC3(C2)CC3(F)F)n1 (some centres unmarked) [Compound 45, 8-(1,1-difluoro-5-azaspiro[2.4]heptan-5-yl)-N-((1s,4s)-4-((dimethylamino)methyl)cyclohexyl)-6-methylpyrido[3,4-d]pyrimidin-2-amine] | – | < 0.2 | > 2
Cc1cc2cnc(NC3CCN(S(C)(=O)=O)CC3)nc2c(N2CCC3(CCC3(F)F)C2)n1 (centres unmarked) [Compound 52, 8-(1,1-difluoro-6-azaspiro[3.4]octan-6-yl)-6-methyl-N-(1-(methylsulfonyl)piperidin-4-yl)pyrido[3,4-d]pyrimidin-2-amine] | < 0.2 | < 0.2 | < 0.2
Cc1cc2cnc(NC3CCN(S(=O)(=O)C4CC4)CC3)nc2c(N2CC(C#N)(CCF)C2)n1 [Compound 68, 1-(2-((1-(cyclopropylsulfonyl)piperidin-4-yl)amino)-6-methylpyrido[3,4-d]pyrimidin-8-yl)-3-(2-fluoroethyl) azetidine-3-carbonitrile] | – | 0.2 to 0.5 | > 2
Cc1cc2cnc(NC3CCN(S(=O)(=O)C4CC4)CC3)nc2c(N2CC(N3CC(F)C3)C2)n1 [Compound 72, N-(1-(cyclopropylsulfonyl)piperidin-4-yl)-8-(3-fluoro-[1,3′-biazetidin]-1′-yl)-6-methylpyrido[3,4-d]pyrimidin-2-amine] | 0.2 to 0.5 | 0.2 to 0.5 | –
Cc1cc2cnc(NC3CCN(S(C)(=O)=O)CC3)nc2c(N2CC3(CC(O)C3)C2)n1 [Compound 73, 2-(6-methyl-2-((1-(methylsulfonyl)piperidin-4-yl)amino)pyrido[3,4-d]pyrimidin-8-yl)-2-azaspiro[3.3]heptan-6-ol] | 0.2 to 0.5 | < 0.2 | –
Cc1cc2cnc(NC3CCN(S(=O)(=O)C4CC4)CC3)nc2c(N2CC(CS(C)(=O)=O)C2)n1 [Compound 74, N-(1-(cyclopropylsulfonyl)piperidin-4-yl)-6-methyl-8-(3-((methylsulfonyl)methyl)azetidin-1-yl)pyrido[3,4-d]pyrimidin-2-amine] | 0.2 to 0.5 | 0.2 to 0.5 | –
COCCN1CC2(CC(c3nc(C4CC4)cc4cnc(NC5CCN(S(=O)(=O)CC6CCC6)CC5)nc34)C2)C1 [Compound 80, N-(1-((cyclobutylmethyl)sulfonyl)piperidin-4-yl)-6-cyclopropyl-8-(2-(2-methoxyethyl)-2-azaspiro[3.3]heptan-6-yl)pyrido[3,4-d]pyrimidin-2-amine] | < 0.2 | < 0.2 | –

Source: patent publication US20250235456A1, “METHODS OF USE FOR AZA-QUINAZOLINE COMPOUNDS” (Iambic Therapeutics, Inc., priority 2024, published 2025)
